# ± gives the standard deviation of the averaged measurements.
# What was measured:
# IMATINIB = compound: Cc1ccc(NC(=O)c2ccc(CN3CCN(C)CC3)cc2)cc1Nc1nccc(-c2cccnc2)n1 [IMATINIB]; assay: surviving fraction relative to DMSO-only wells; higher = less growth inhibition; settings: exposure time: 5 days
# How it was run: (§1)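 Inhibitors were tested at 0.5, 1, 5, 10, 50, 100, 500 and 1000 nM, applied continuously for five days beginning 24 hours after log-phase tumour cells were seeded at 250–500 per well in 384-well plates. CellTiter-Glo luminescence served as the viability measure, expressed as surviving fraction against the median of DMSO-only wells. Each line, screened three times, was kept only with replicate Pearson r >0.7 and median Z' >0.3.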
# [1] = compound: C[C@H](CN(C)C)Oc1nc(Nc2cc3cccc(Cl)c3cn2)cnc1C#N; assay: as above; settings: exposure time: 5 days
# How it was run: as §1
Test System,surviving fraction (IMATINIB; 0.5 nM),surviving fraction (IMATINIB; 1 nM),surviving fraction (IMATINIB; 5 nM),surviving fraction (IMATINIB; 10 nM),surviving fraction (IMATINIB; 50 nM),surviving fraction (IMATINIB; 100 nM),surviving fraction (IMATINIB; 500 nM),surviving fraction (IMATINIB; 1000 nM),surviving fraction ([1]; 0.5 nM),surviving fraction ([1]; 1 nM),surviving fraction ([1]; 5 nM),surviving fraction ([1]; 10 nM),surviving fraction ([1]; 50 nM),surviving fraction ([1]; 100 nM),surviving fraction ([1]; 500 nM),surviving fraction ([1]; 1000 nM)
SG31 HEADNECK,1.16 ± 0.19,1.33 ± 0.14,1.36 ± 0.36,1.16 ± 0.33,1.07 ± 0.1,0.994 ± 0.022,1.33 ± 0.21,1.18 ± 0.16,1.04 ± 0.091,1.08 ± 0.072,1.1 ± 0.28,1.07 ± 0.12,1.07 ± 0.16,1.07 ± 0.11,0.982 ± 0.14,0.967 ± 0.032
SG32 HEADNECK,,,1.2 ± 0.18,,,1 ± 0.14,1.17 ± 0.052,1.21 ± 0.16,1.17 ± 0.16,1.16 ± 0.24,1.06 ± 0.078,1.03 ± 0.1,1.05 ± 0.081,1.16 ± 0.23,0.748 ± 0.066,0.653 ± 0.11
SG43 HEADNECK,1.16 ± 0.41,1.07 ± 0.36,0.895 ± 0.2,1.03 ± 0.23,1.01 ± 0.2,0.901 ± 0.27,1.11 ± 0.13,1.16 ± 0.33,0.863 ± 0.068,0.929 ± 0.058,0.961 ± 0.13,0.933 ± 0.091,0.729 ± 0.078,0.585 ± 0.08,0.692 ± 0.082,0.91 ± 0.18
SIHA CERVIX,1.1 ± 0.04,1.1 ± 0.054,,1.09 ± 0.065,1.15 ± 0.073,1.17 ± 0.054,1.12 ± 0.076,,0.955 ± 0.041,0.981 ± 0.033,1.06 ± 0.037,1.05 ± 0.061,1.16 ± 0.014,1.11 ± 0.1,0.95 ± 0.092,1 ± 0.033
SJSA1 BONE,1.65 ± 0.051,1.71 ± 0.075,1.64 ± 0.1,1.83 ± 0.1,0.61 ± 0.12,1.36 ± 0.01,1.65 ± 0.039,1.33 ± 0.024,1.49 ± 0.044,1.65 ± 0.083,1.6 ± 0.17,1.57 ± 0.02,1.63 ± 0.14,1.74 ± 0.039,1.63 ± 0.2,1.69 ± 0.082
SKBR3 BREAST,1.02 ± 0.2,1.09 ± 0.09,,1.11 ± 0.14,1.09 ± 0.081,1.16 ± 0.063,1.24 ± 0.15,1.07 ± 0.15,1.04 ± 0.066,0.967 ± 0.066,0.881 ± 0.058,0.843 ± 0.063,1.06 ± 0.061,0.91 ± 0.18,0.667 ± 0.08,0.344 ± 0.019
SNU475 LIVER,1.04 ± 0.086,,1.06 ± 0.036,1.07 ± 0.019,1.09 ± 0.0085,,1.06 ± 0.045,,0.989 ± 0.036,1.03 ± 0.019,1 ± 0.039,1.037 ± 0.005,1.02 ± 0.044,0.972 ± 0.04,0.968 ± 0.024,0.918 ± 0.024
SUM44 BREAST,1.3 ± 0.48,,1.24 ± 0.36,1.23 ± 0.28,1.27 ± 0.31,,1.26 ± 0.34,1.11 ± 0.23,1.14 ± 0.37,1.16 ± 0.3,1.24 ± 0.33,1.29 ± 0.47,1.23 ± 0.4,0.918 ± 0.25,0.284 ± 0.056,0.268 ± 0.066
SUM149 BREAST,1.04 ± 0.08,1.11 ± 0.047,1.07 ± 0.079,1.08 ± 0.072,,0.951 ± 0.07,0.866 ± 0.045,1.01 ± 0.046,1.04 ± 0.091,1.02 ± 0.083,0.988 ± 0.086,1.07 ± 0.017,0.903 ± 0.07,0.836 ± 0.024,0.192 ± 0.0025,0.0843 ± 0.011
SUM149.B1*.S BREAST,1.12 ± 0.041,1.11 ± 0.036,1.15 ± 0.04,1.19 ± 0.035,1.19 ± 0.039,1.15 ± 0.038,1.19 ± 0.051,1.18 ± 0.061,1.06 ± 0.066,1.06 ± 0.023,1.03 ± 0.055,1.09 ± 0.029,1.11 ± 0.029,1.05 ± 0.029,0.941 ± 0.026,0.492 ± 0.024
SUM159 BREAST,,1.11 ± 0.015,1.11 ± 0.024,1.101 ± 0.0045,1.126 ± 0.009,,1.14 ± 0.02,,1.04 ± 0.038,1.06 ± 0.034,1.05 ± 0.03,1.05 ± 0.033,1.06 ± 0.024,1.05 ± 0.024,1.03 ± 0.02,0.986 ± 0.0078
SYO1 SYNOVIAL,1.03 ± 0.05,1.02 ± 0.028,0.987 ± 0.037,0.955 ± 0.031,0.921 ± 0.035,0.898 ± 0.017,0.88 ± 0.056,0.888 ± 0.023,0.955 ± 0.038,0.963 ± 0.015,0.969 ± 0.017,0.941 ± 0.023,0.97 ± 0.026,0.835 ± 0.015,0.34 ± 0.0094,0.197 ± 0.014
T47D BREAST,1.08 ± 0.042,1.05 ± 0.016,1.1 ± 0.02,1.05 ± 0.066,1.13 ± 0.027,1.08 ± 0.036,1.1 ± 0.068,1.07 ± 0.056,1.02 ± 0.043,1.06 ± 0.044,1.04 ± 0.027,1.03 ± 0.032,1.1 ± 0.046,1.14 ± 0.029,0.919 ± 0.063,0.766 ± 0.024
U2OS BONE,1.06 ± 0.021,1.02 ± 0.033,1.07 ± 0.028,1.05 ± 0.028,1.09 ± 0.026,1.113 ± 0.0058,1.15 ± 0.027,1.15 ± 0.018,1.04 ± 0.053,1 ± 0.039,1.02 ± 0.027,0.993 ± 0.081,1.05 ± 0.043,1.03 ± 0.025,0.277 ± 0.028,0.159 ± 0.013
VCAP PROSTATE,1.11 ± 0.19,0.949 ± 0.15,,1.17 ± 0.035,1.22 ± 0.12,1.12 ± 0.13,,1.05 ± 0.086,0.969 ± 0.098,1.03 ± 0.14,1.1 ± 0.11,1.08 ± 0.11,1.12 ± 0.033,1.01 ± 0.16,0.715 ± 0.12,0.35 ± 0.039
VP229 BREAST,1.29 ± 0.17,1.22 ± 0.091,1.12 ± 0.098,1.2 ± 0.3,1.35 ± 0.1,,1.16 ± 0.064,1.27 ± 0.12,0.984 ± 0.1,1.02 ± 0.056,1.1 ± 0.12,1.04 ± 0.14,1.05 ± 0.096,1.09 ± 0.042,1.04 ± 0.086,0.86 ± 0.028
YAMATO SYNOVIAL,1.29 ± 0.055,1.19 ± 0.14,1.28 ± 0.14,1.26 ± 0.078,1.23 ± 0.054,1.27 ± 0.15,1.1 ± 0.11,1.05 ± 0.073,1.12 ± 0.038,1.24 ± 0.086,1.17 ± 0.05,1.2 ± 0.13,1.18 ± 0.067,1.18 ± 0.037,0.806 ± 0.052,0.622 ± 0.074
ZR751 BREAST,1.23 ± 0.15,1.15 ± 0.14,1.05 ± 0.1,1.17 ± 0.23,1.16 ± 0.11,1.11 ± 0.063,1.13 ± 0.065,1.07 ± 0.14,1.07 ± 0.13,1.07 ± 0.085,1.08 ± 0.17,0.991 ± 0.078,0.867 ± 0.13,0.909 ± 0.15,0.543 ± 0.082,0.587 ± 0.042

# — the supplement of paper PMC6045584
